# Patent US7790904B2, “Substituted benzimidazole derivatives” (Hoffmann-La Roche Inc., priority 2007, dated 2010)
# Key:
# [1] = target: T1, ligand binding domain (LBD) of human FXR (aa 193-473) (Homo sapiens, UniProt Q96RI1); assay: Luciferase transcriptional reporter gene assay (transactivation); assay type: cell-based; settings: BHK21 cells transfected with pFA-FXR-LBD plus reporter plasmid; 24 hours incubation; luciferase luminescence
# T1 sequence (Q96RI1 1-486): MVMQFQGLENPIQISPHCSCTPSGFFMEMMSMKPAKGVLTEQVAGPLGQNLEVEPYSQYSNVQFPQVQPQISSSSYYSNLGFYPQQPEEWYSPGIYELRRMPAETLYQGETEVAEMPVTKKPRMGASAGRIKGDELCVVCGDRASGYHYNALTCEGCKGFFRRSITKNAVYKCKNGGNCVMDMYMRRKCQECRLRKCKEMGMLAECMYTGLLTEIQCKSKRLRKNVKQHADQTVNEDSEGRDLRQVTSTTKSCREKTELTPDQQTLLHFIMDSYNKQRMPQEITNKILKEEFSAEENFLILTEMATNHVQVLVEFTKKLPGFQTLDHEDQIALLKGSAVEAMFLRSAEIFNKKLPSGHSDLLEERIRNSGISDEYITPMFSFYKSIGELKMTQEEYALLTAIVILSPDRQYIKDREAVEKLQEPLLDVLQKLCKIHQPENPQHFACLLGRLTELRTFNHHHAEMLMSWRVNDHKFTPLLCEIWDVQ
# From the text: (§1) Bacterial and mammalian expression vectors were constructed to produce glutathione-s-transferase (GST) and Gal4 DNA binding domain (GAL) proteins fused to the ligand binding domain (LBD) of human FXR (aa 193-473). To accomplish this, the portions of the sequences encoding the FXR LBD were amplified by polymerase chain reaction (PCR) from a full-length clone by PCR and then subcloned into the plasmid vectors. The final clone was verified by DNA sequence analysis.
# Luciferase Transcriptional Reporter Gene Assays
# Baby hamster kidney cells (BHK21 ATCC CCL 10) were grown in DMEM medium containing 10% FBS at 37° C. in a 95% […]/5% CO2 atmosphere. Cells were seeded in 6-well plates at a density of 10^5 cells/well and then transfected with the pFA-FXR-LBD or expression plasmid plus a reporter plasmid. […] Six hours following transfection, the cells were harvested by trypsinization and seeded in 96-well plates at a density of […]. After 24 hours to allow attachment of cells, the medium was removed and replaced with 100 μl of phenol red-free medium containing the test substances or control ligands (final DMSO concentration: 0.4%). Following incubation of the cells for 24 hours with substances, 50 μl of the supernatant was discarded and then 50 μl of Luciferase Constant-Light Reagent (Roche Molecular Biochemicals) was added to lyse the cells and initiate the luciferase reaction. Luminescence, as a measure of luciferase activity, was detected in a Packard TopCount. Transcriptional activation in the presence of a test substance was expressed as fold-change in luminescence compared to that of cells incubated in the absence of the substance. EC50 values were calculated using the XLfit program (ID Business Solutions Ltd. UK).
# [2] = target: T2, FXR ligand binding domain (GST-FXR LBD fusion protein) (Homo sapiens, UniProt Q96RI1); assay: Radioligand binding assay (SPA, radioligand displacement); settings: 40 nM GST-FXR LBD on glutathione yttrium silicate SPA beads; radioligand e.g. 20 nM 2,N-dicyclohexyl-2-[2-(2,4 dimethoxy-phenyl)-benzoimidazol-1-yl]-acetamide
# T2 construct: made in house; host or cells: E. coli BL21 (pLysS)
# T2 sequence (Q96RI1 193-472 isoform Q96RI1-2 limits assumed): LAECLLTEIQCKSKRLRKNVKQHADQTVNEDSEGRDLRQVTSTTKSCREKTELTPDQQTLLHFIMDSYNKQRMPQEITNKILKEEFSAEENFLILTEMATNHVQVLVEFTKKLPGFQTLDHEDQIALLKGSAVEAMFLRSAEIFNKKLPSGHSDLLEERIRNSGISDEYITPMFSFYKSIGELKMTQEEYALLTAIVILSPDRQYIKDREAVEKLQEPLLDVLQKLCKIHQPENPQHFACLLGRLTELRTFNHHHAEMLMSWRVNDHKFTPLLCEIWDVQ
# Description: The following tests were carried out in order to determine the activity of the compounds of formula (I). Background information on the binding assay can be found in: Nichols J S et al. “Development of a scintillation proximity assay for peroxisome proliferator-activated receptor gamma ligand binding domain”, (1998) Anal. Biochem. 257: 112-119.
# as §1
# The induction, expression, and subsequent purification of GST-LBD fusion protein was performed in E. coli strain BL21 (pLysS) cells by standard methods (Current Protocols in Molecular Biology, Wiley Press, ed. Ausubel et al.).
# Radioligand Binding Assay
# Binding of test substances to the FXR ligand binding domain was assessed in a radioligand displacement assay. The assay was performed in a buffer consisting of 50 mM Hepes, pH 7.4, 10 mM NaCl, 5 mM MgCl2, 0.01% CHAPS. For each reaction well in a 96-well plate, 40 nM of GST-FXR LBD fusion protein was bound to 10 μg glutathione ytrium silicate SPA beads (PharmaciaAmersham) in a final volume of 50 μl by shaking. A radioligand (e.g. 20 nM of 2,N-dicyclohexyl-2-[2-(2,4 dimethoxy-phenyl)-benzoimidazol-1-yl]-acetamide) and test compounds were added, and scintillation proximity counting was performed. All binding assays were performed in 96-well plates and the amount of bound ligand was measured on a Packard TopCount using OptiPlates (Packard). Dose response curves were performed within a range of test compound concentrations from 6×10^−9 M to 2.5×10^−5 M and IC50s were calculated.
EC50 [1] [nM],IC50 [2] [nM],Structure (SMILES)
254,118,"Cc1cc(Cl)ccc1O[C@H](C)c1nc2ccc(F)cc2n1[C@H](C(=O)NC1CCCCC1)C1CCCCC1 [Example 31, (S)-2-{2-[(R)-1-(4-Chloro-2-methyl-phenoxy)-ethyl]-6-fluoro-benzoimidazol-1-yl}-2,N-dicyclohexyl-acetamide]"
95,38,"Cc1cccc(OCc2nc3cc(F)ccc3n2C(C(=O)NC2CCCCC2)C2CCCCC2)c1C (stereo not drawn) [Example 49, 2,N-Dicyclohexyl-2-[2-(2,3-dimethyl-phenoxymethyl)-5-fluoro-benzoimidazol-1-yl]-acetamide]"
982,105,"O=C(NC1CCCCC1)C(C1CCCCC1)n1c(COc2ccccn2)nc2cc(F)ccc21 (stereo not drawn) [Example 56, 2,N-Dicyclohexyl-2-[5-fluoro-2-(pyridin-2-yloxymethyl)-benzoimidazol-1-yl]-acetamide]"
